*1 amine or outer side, *2 acyl side, *3 side chain or, on linkers, in order; H or OH if unused. Where a SMILES comes first, the peptide text is derived from it. Bridges are numbered along the chain shown (N, C = ends). [ ]: non-standard residue; d: D form. The star is where a group is joined. hPhe(3,5-F2-4-CF3) = N[C@@H](CCc1cc(F)c(C(F)(F)F)c(F)c1)C(=O)O; hPhe(3-Cl-4-CF3) = N[C@@H](CCc1ccc(C(F)(F)F)c(Cl)c1)C(=O)O; NPrPhe(4-CF3) = CCCN[C@@H](Cc1ccc(C(F)(F)F)cc1)C(=O)O; NMeGly(cPent) = CN[C@H](C(=O)O)C1CCCC1; X13 = CCC[C@](C)(N[*:1])C(=O)[*:2]; NMeD = CN[C@@H](CC(=O)O)C(=O)O; NMeL = CN[C@@H](CC(C)C)C(=O)O; Morpholide = C1CN(*)CCO1; NMeA = CN[C@@H](C)C(=O)O; Ac5c = NC1(C(=O)O)CCCC1; Aze = O=C(O)[C@@H]1CCN1; Sar = CNCC(=O)O
Assays:
[1] = biological target: GDP-bound HRAS wild-type protein (Homo sapiens, UniProt P01112); experiment: Binding to HRAS by surface plasmon resonance (SPR), Single Cycle Kinetics; conditions: SPR; for HRAS/KRAS (ratio of KD value with respect to HRAS to KD value with respect to KRAS): GDP-bound HRAS wild-type vs GDP-bound KRAS wild-type
Sequence of GDP-bound HRAS wild-type protein (P01112 whole entry): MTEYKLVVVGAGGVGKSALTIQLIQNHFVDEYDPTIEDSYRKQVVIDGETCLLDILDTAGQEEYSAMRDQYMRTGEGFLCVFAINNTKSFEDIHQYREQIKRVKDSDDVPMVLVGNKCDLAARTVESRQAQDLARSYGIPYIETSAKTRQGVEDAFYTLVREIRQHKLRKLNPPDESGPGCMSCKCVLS

[2] = biological target: GDP-bound NRAS wild-type protein (Homo sapiens, UniProt P01111); experiment: Binding to NRAS by surface plasmon resonance (SPR), Single Cycle Kinetics; conditions: SPR; for NRAS/KRAS (ratio of KD value with respect to NRAS to KD value with respect to KRAS): GDP-bound NRAS wild-type vs GDP-bound KRAS wild-type
Sequence of GDP-bound NRAS wild-type protein (P01111 whole entry): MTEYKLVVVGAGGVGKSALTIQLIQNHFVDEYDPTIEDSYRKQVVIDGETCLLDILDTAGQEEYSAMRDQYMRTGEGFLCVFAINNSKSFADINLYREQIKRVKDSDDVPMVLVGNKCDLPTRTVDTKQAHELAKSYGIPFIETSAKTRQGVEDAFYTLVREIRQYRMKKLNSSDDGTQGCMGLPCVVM

CC[C@H](C)[C@@H]1NC(=O)[C@H](CC(C)C)N(C)C(=O)C[C@@H](C(=O)N2CCOCC2)N(C)C(=O)[C@H](C2CCCC2)N(C)C(=O)C2(CCC2)NC(=O)[C@@H]2CCCN2C(=O)[C@H](CCc2ccc(C(F)(F)F)c(Cl)c2)NC(=O)CN(C)C(=O)[C@H](Cc2ccc(F)cc2)N2CCCCC[C@@H](C2=O)N(C)C(=O)CN(C)C1=O [PP0967]
HRAS/KRAS (ratio of KD value with respect to HRAS to KD value with respect to KRAS) ([1]; KD ratio): B (a compound having 3 or more and less than 10 is denoted as B)
NRAS/KRAS (ratio of KD value with respect to NRAS to KD value with respect to KRAS) ([2]; KD ratio): B (a compound having 3 or more and less than 10 is denoted as B)

CCO[C@@H]1C[C@H]2C(=O)NC3(CC(C)(C)C3)C(=O)N(C)[C@@H](C(CC)CC)C(=O)N(C)[C@H](C(=O)N(C)C)CC(=O)N(C)[C@@H](C(C)C)C(=O)N[C@@H]([C@@H](C)CC)C(=O)N(C)CC(=O)N(C)[C@H]3C/C=C\CCN(C3=O)[C@@H](Cc3ccc(C)cc3)C(=O)N(C)CC(=O)N[C@@H](CCc3ccc(C(F)(F)F)c(OC)c3)C(=O)N2C1 [PP2173]
HRAS/KRAS (ratio of KD value with respect to HRAS to KD value with respect to KRAS) [1]: A (a compound having 10 or more and less than 20 is denoted as A)
NRAS/KRAS (ratio of KD value with respect to NRAS to KD value with respect to KRAS) [2]: A (a compound having 10 or more and less than 20 is denoted as A)

CCCN1C(=O)CN(C)C(=O)CN(C)C(=O)[C@H]([C@@H](C)CC)NC(=O)[C@H](CC(C)C)N(C)C(=O)C[C@@H](C(=O)N2CCOCC2)N(C)C(=O)[C@H](C2CCCC2)N(C)C(=O)[C@](C)(CCC)NC(=O)[C@@H]2CCCN2C(=O)[C@H](CCc2cc(F)c(C(F)(F)F)c(F)c2)NC(=O)CN(C)C(=O)[C@@H]1Cc1ccc(C(F)(F)F)cc1 [PP0758] ([NMeL]I[Sar][Sar][NPrPhe(4-CF3)][Sar][hPhe(3,5-F2-4-CF3)]P[X13][NMeGly(cPent)][NMeD]-Morpholide; lactam N-11)
HRAS/KRAS (ratio of KD value with respect to GDP-bound HRAS wild-type protein to KD value with respect to KRAS) ([1]; KD ratio HRAS/KRAS): C (A compound having a KD ratio of 0.1 or more and less than 3 is denoted as C)
NRAS/KRAS (ratio of KD value with respect to GDP-bound NRAS wild-type protein to KD value with respect to KRAS) ([2]; KD ratio NRAS/KRAS): B (a compound having 3 or more and less than 10 is denoted as B)

CCC[C@H]1C(=O)N[C@@H](C2CCOCC2)C(=O)N(C)CC(=O)N(C)[C@H]2C/C=C\CCN(C2=O)[C@@H](Cc2ccc(C(F)(F)F)cc2)C(=O)N(C)CC(=O)N[C@@H](CCc2ccc(C(F)(F)F)c(Cl)c2)C(=O)N2C[C@H](OCC)C[C@H]2C(=O)NC2(CC(C)(C)C2)C(=O)N(C)[C@@H](C2CCCC2)C(=O)N(C)[C@H](C(=O)N(C)C)CC(=O)N1C [PP3000]
HRAS/KRAS (ratio of KD value with respect to GDP-bound HRAS wild-type protein to KD value with respect to KRAS) ([1]; KD ratio HRAS/KRAS, GDP-bound wild-type proteins): A (a compound having 10 or more and less than 20 is denoted as A)
NRAS/KRAS (ratio of KD value with respect to GDP-bound NRAS wild-type protein to KD value with respect to KRAS) ([2]; KD ratio NRAS/KRAS, GDP-bound wild-type proteins): AA (a compound having 20 or more is denoted as AA)

CCCN1C(=O)[C@@H]2CCN2C(=O)[C@H](C)N(C)C(=O)[C@H]([C@@H](C)CC)NC(=O)[C@H](CC(C)C)N(C)C(=O)C[C@@H](C(=O)N2CCOCC2)N(C)C(=O)[C@H](C2CCCC2)N(C)C(=O)C2(CCCC2)NC(=O)[C@H](C)NC(=O)[C@H](CCc2ccc(C(F)(F)F)c(Cl)c2)NC(=O)CN(C)C(=O)[C@@H]1Cc1ccc(C(F)(F)F)cc1 [PP0153] ([NMeL]I[NMeA][Aze][NPrPhe(4-CF3)][Sar][hPhe(3-Cl-4-CF3)]A[Ac5c][NMeGly(cPent)][NMeD]-Morpholide; lactam N-11)
HRAS/KRAS (ratio of KD for GDP-bound HRAS wild-type to KD for KRAS) ([1]; KD ratio HRAS/KRAS): C (A compound having a KD ratio of 0.1 or more and less than 3 is denoted as C)
NRAS/KRAS (ratio of KD for GDP-bound NRAS wild-type to KD for KRAS) ([2]; KD ratio NRAS/KRAS): C (A compound having a KD ratio of 0.1 or more and less than 3 is denoted as C)

CCO[C@@H]1C[C@H]2C(=O)NC3(CCC3)C(=O)N(C)[C@@H](C3CCCC3)C(=O)N(C)[C@H](C(=O)N(C)C)CC(=O)N(CC)[C@@H](CC(C)C)C(=O)N[C@@H]([C@@H](C)CC)C(=O)N(C)CC(=O)N(C)[C@H]3CC(C)=CCN(C3=O)[C@@H](Cc3ccc(C(F)(F)F)cc3)C(=O)N(C)CC(=O)N[C@@H](CCc3cc(F)c(C(F)(F)F)c(F)c3)C(=O)N2C1 [PP1037]
HRAS/KRAS (ratio of KD value with respect to HRAS to KD value with respect to KRAS) ([1]; KD ratio): C (A compound having a KD ratio of 0.1 or more and less than 3 is denoted as C)
NRAS/KRAS (ratio of KD value with respect to NRAS to KD value with respect to KRAS) ([2]; KD ratio): C (A compound having a KD ratio of 0.1 or more and less than 3 is denoted as C)

CCO[C@@H]1C[C@H]2C(=O)NC3(CCC3)C(=O)N(C)[C@@H](C3CCCC3)C(=O)N(C)[C@H](C(=O)N3CCOCC3)CC(=O)N(C)[C@@H](CC(C)C)C(=O)N[C@@H]([C@H](C)CC)C(=O)N(C)CC(=O)N(C)[C@H]3CCCCN(C3=O)[C@@H](Cc3ccc(C(F)(F)F)cc3)C(=O)N(C)CC(=O)N[C@@H](CCc3cc(F)c(C(F)(F)F)c(F)c3)C(=O)N2C1 [PP0806]
HRAS/KRAS (ratio of KD value with respect to GDP-bound HRAS wild-type protein to KD value with respect to KRAS) ([1]; KD ratio HRAS/KRAS): B (a compound having 3 or more and less than 10 is denoted as B)
NRAS/KRAS (ratio of KD value with respect to GDP-bound NRAS wild-type protein to KD value with respect to KRAS) ([2]; KD ratio NRAS/KRAS): B (a compound having 3 or more and less than 10 is denoted as B)

From patent US20250230193A1, “CYCLIC COMPOUND HAVING SELECTIVE KRAS INHIBITORY EFFECT ON HRAS AND NRAS” (CHUGAI SEIYAKU KABUSHIKI KAISHA, priority 2022, published 2025)
